Assay results: patent US6441030B1, “3-phenyl-pyrones” (Bayer Aktiengesellschaft, priority 1998, dated 2002)

Columns and labels:
Assay type in all cases: in vivo
Myzus persicae = test: Critical concentration test/root-systemic action, Myzus persicae (Example H); conditions: active compound concentration of 1.25 ppm in the soil; broad beans; populated after 7 days, evaluated after a further 7 days
Method: (§1) Critical Concentration Test/Root-systemic Action Test insect: Myzus persicae Solvent: 4 parts by weight of dimethylformamide Emulsifier: 1 part by weight of alkylaryl polyglycol ether To prepare a suitable preparation of active compound, 1 part by weight of active compound is mixed with the stated amount of solvent, the stated amount of emulsifier is added and the concentrate is diluted with water to the desired concentration. The preparation of active compound is mixed intimately with the soil. The concentration of the active compound in the preparation is virtually immaterial, only the amount by weight of active compound per volume unit of soil, which is stated in ppm (=mg/ml), being decisive. The treated soil is filled into 250 ml pots and pre-germinated broad beans are planted in these. Thus, the active compound can be taken up by the plant roots from the soil and then transported into the leaves. To assess the root-systemic effect, the leaves are populated with the abovementioned test animals after 7 days. After a further 7 days, evaluation is carried out by counting or estimating the dead animals. The root-systemic action of the active compound is derived from the number of animals killed. It is 100% if all test animals have been killed and 0% when the number of test insects that are still alive is the same as for the untreated control.

[1] = system: larvae of the mustard beetle (Phaedon cochleariae); test: Phaedon larvae test (Example C); conditions: active compound concentration of 0.1% in the preparation; cabbage leaves (Brassica oleracea) dipped
Method: Phaedon Larvae Test Solvent: 7 parts by weight of dimethylformamide Emulsifier: 1 part by weight of alkylaryl polyglycol ether […] Cabbage leaves (Brassica oleracea) are treated by being dipped into the preparation of active compound of the desired concentration and are populated with larvae of the mustard beetle (Phaedon cochleariae) while the leaves are still moist.

Aphis fabae = test: Critical concentration test/root-systemic action, Aphis fabae (Example G); conditions: active compound concentration of 1.25 ppm in the soil; broad beans; populated after 7 days, evaluated after a further 7 days
Method: as §1, with “Aphis fabae” for “Myzus persicae”, “(=mg/l),” for “(=mg/ml),”

Cc1cc(Cl)ccc1-c1c(O)c(C)c(-c2ccccn2)oc1=O [Example 1, 3-(2-methyl-4-chloro-phenyl)-4-hydroxy-5-methyl-6-(pyrid-2-yl)-pyrone]
100 per cent: efficacy (root-systemic action) (Myzus persicae) | efficacy (kill in %) [1] | efficacy (root-systemic action) (Aphis fabae)
